Experimental findings from patent US4988703A, “Carbocyclic nucleoside analogs with antiviral activity” (Abbott Laboratories, priority 1989, dated 1991) are described below.

For data set [1], the system named is Human influenza type A (IV-A) strain PR/8/34 (HINI). Description: CPE-inhibition assay against human influenza virus type A in MDCK cells. It is filed as cell-based.
Data set [2] has as its system Herpes simplex type 1 (HSV-1) strain E-377.
In data set [3] the test system is Herpes simplex type 2 (HSV-2) strain MS.
A short description of data set [4]: in vitro. Particulars: dog, mdck.
Experimental: (§1) The challenge viruses were propagated and assayed in cells that were pregrown as monolayer cultures in plastic tissue culture flasks and 96-well plates, using cell culture media appropriate for the host cell cultures. The following viruses and host cell cultures were employed:
(§2) On the day of use, a weighed sample of each compound to be evaluated was dissolved and diluted in serial 10^0.5 dilutions in the culture medium appropriate for each virus-host cell system.
Mammalian cells were pregrown as monolayers in wells of COSTAR 96-well tissue culture plates using suitable cell culture media. Stock viruses were pretitered according to the method of Reed and Muench (Amer. J. Hyg. 27:493-497, 1938) and diluted in cell culture medium to yield 32 CCID50 (cell culture infectious dose, 50%) units per 0.1 ml. Antiviral assays were designed to test seven concentrations of each compound, from cytotoxic to noncytotoxic levels, in triplicate against each of the challenge viruses in microtiter plate wells containing suitable cell monolayers. To each of the replicate cell cultures were added 0.1 ml of the test drug solution and 0.1 ml of virus suspension. […]
Antiviral activity was determined by calculating the degree of inhibition of virus-induced CPE in drug-treated, virus-infected cell cultures by means of a virus rating (VR). […]
Data set [5] deals with Herpes simplex type 1 (HSV-1) strain E-377. Description: microbe, parasite or virus in culture. The note with it: Human alphaherpesvirus 1, Vero, read-out: ID50: minimum drug concentration that inhibited the CPE by 50%.
For data set [6], the system named is Herpes simplex type 2 (HSV-2) strain MS. Description: microbe, parasite or virus in culture. The note with it: Human alphaherpesvirus 2, Vero, read-out: ID50: minimum drug concentration that inhibited the CPE by 50%.
Data set [7] is described as follows: Drug cytotoxicity in Vero host cells (cytotoxicity controls of the CPE-inhibition assay). Particulars: african green monkey, vero cells.
Experimental: as §1, §2
(§3) Mammalian cells were pregrown as monolayers in wells of COSTAR 96-well tissue culture plates using suitable cell culture media. Stock viruses were pretitered according to the method of Reed and Muench (Amer. J. Hyg. 27:493-497, 1938) and diluted in cell culture medium to yield 32 CCID50 (cell culture infectious dose, 50%) units per 0.1 ml. Antiviral assays were designed to test seven concentrations of each compound, from cytotoxic to noncytotoxic levels, in triplicate against each of the challenge viruses in microtiter plate wells containing suitable cell monolayers. To each of the replicate cell cultures were added 0.1 ml of the test drug solution and 0.1 ml of virus suspension. Cell controls containing medium alone, virus controls containing medium and virus, and drug cytotoxicity controls containing medium and each drug concentration were run simultaneously with the test samples assayed in each experiment. […] The cell monolayers were examined microscopically for virus-induced CPE and for drug cytotoxicity.
(§4) Antiviral activity was determined by calculating the degree of inhibition of virus-induced CPE in drug-treated, virus-infected cell cultures by means of a virus rating (VR). The VR is a standard weighted measurement of antiviral activity taking into account both the degree of CPE inhibition and drug cytotoxicity, and is determined by a modification of the method of Ehrlich et al. (Ann. N.Y. Acad. Sci. 130 : 5-16, 1965) as described below. CPE was graded for each individual culture in each microtiter plate well according to the following scale:
(§5) ^3 MTC=The minimum drug concentration (ug/ml) causing any cytotoxicity.
The subject of data set [8] is African green monkey kidney (Vero). The data set is described as above. Particulars: Vero, HSV-2 (MS) experiment.
Experimental: as §1, §2, §3, §4, §5

≈ marks a conversion by molar mass, not a printed value. Where two headings read alike, the source gives them in different places. Where only a bound is given, the exact number is not on record here.

Turning to `Nc1nc2c(ncn2C2CC2C(O)CO)c(=O)[nH]1` (stereo not drawn) [Example 3G], the “VR (Virus Rating)” value in data set [1] is 0.6; in data set [2], 1.8; in data set [3] it was 1.3. Moreover, the “TI (Therapeutic Index): minimum cytotoxic drug concentration divided by ID50” value in data set [2] (HSV-1 E-377, Vero) is given as 3.2; in data set [3] (HSV-2 MS, Vero), 2.0. Also, the MCC in data set [4] and in data set [7] was more than 320 µg/mL each time. Also, the IC50 in data set [5] turned out to be 101 µg/mL (≈ 402 µM); in data set [6], 159 µg/mL (≈ 633 µM). In addition, the “MTC: minimum drug concentration causing any cytotoxicity” value in data set [8] was more than 320 µg/mL.

For `Nc1nc2c(ncn2C2CC2CCO)c(=O)[nH]1` (stereo not drawn) [Example 2E, 9-[2-(2'-hydroxyethyl)cyclopropyl]guanine], the “TI (Therapeutic Index): minimum cytotoxic drug concentration divided by ID50” value in data set [2] (HSV-1 E-377, Vero) was more than 10.4; in data set [3] (HSV-2 MS, Vero) it was more than 4.1. Further, the “VR (Virus Rating)” value was found to be 3.7 in data set [2] (HSV-1 E-377, Vero, VR 1.0 definite activity, 0.5-0.9 marginal to moderate, <0.5 usually none) and 2.3 in data set [3] (HSV-2 MS, Vero, VR 1.0 definite activity, 0.5-0.9 marginal to moderate, <0.5 usually none). Besides, the figures for the IC50 in data set [5] and in data set [6] were 31.6 µg/mL (≈ 134 µM) and 77.7 µg/mL (≈ 330 µM), respectively. This molecule showed an MCC in data set [7] of more than 320 µg/mL. Further, in data set [8], the “MTC: minimum drug concentration causing any cytotoxicity” value was more than 320 µg/mL.
